PMC7914897, “Cytotoxic Potential of a-Azepano- and 3-Amino-3,4-SeCo-Triterpenoids” (International Journal of Molecular Sciences, 2021)
Like-named read-outs stand apart in the source and are kept apart here.

What was measured:
T-47D (Breast cancer) = test: NCI-60 screen (SRB, 48 h); settings: Homo sapiens, T47D; for IC (TGI): 48 h, read-out: TGI
COLO 205 (Colon cancer) = test: NCI-60 screen (SRB, 48 h); settings: Homo sapiens; for GI50: COLO 205; for IC (TGI): COLO 205, 48 h, read-out: TGI
TK-10 (Renal cancer) = test: NCI-60 screen (SRB, 48 h); settings: for GI50: TK-10; for IC (TGI): TK-10, 48 h, read-out: TGI
SNB-19 (CNS cancer) = test: NCI-60 screen (SRB, 48 h); settings: Homo sapiens; for GI50: SNB-19; for IC (TGI): SNB-19, 48 h, read-out: TGI
SK-MEL-5 (Melanoma) = test: NCI-60 screen (SRB, 48 h); settings: for GI50 / IC (TGI) / CC50: Homo sapiens; for GI50: SK-MEL-5; for IC (TGI): SK-MEL-5, 48 h, read-out: TGI; for CC50: SK-MEL-5, read-out: LC50
MDA-MB-435 (Melanoma) = test: NCI-60 screen (SRB, 48 h); type: cell-based
UACC-257 (Melanoma) = test: NCI-60 screen (SRB, 48 h); settings: Homo sapiens; for GI50: UACC-257; for IC (TGI): UACC-257, 48 h, read-out: TGI
DU-145 (Prostate cancer) = test: NCI-60 screen (SRB, 48 h); settings: Homo sapiens; for GI50: DU-145; for IC (TGI): DU-145, 48 h, read-out: TGI
HCT-15 (Colon cancer) = test: NCI-60 screen (SRB, 48 h); settings: Homo sapiens; for GI50: HCT-15; for IC (TGI): HCT-15, 48 h, read-out: TGI
MOLT-4 (Leukemia) = test: NCI-60 screen (SRB, 48 h); settings: Homo sapiens; for GI50: MOLT-4
CCRF-CEM (Leukemia) = test: NCI-60 screen (SRB, 48 h); settings: Homo sapiens
MALME-3M (Melanoma) = test: NCI-60 screen (SRB, 48 h); settings: Homo sapiens
UO-31 (Renal cancer) = test: NCI-60 screen (SRB, 48 h); settings: Homo sapiens; for GI50: UO-31
Prostate cancer subpanel = test: NCI-60 screen, subpanel; settings: Homo sapiens; for IC (TGI): 48 h, read-out: TGI MG_MID; for GI50: read-out: GI50 MG_MID
MCF7 (Breast cancer) = test: NCI-60 screen (SRB, 48 h); settings: Homo sapiens; for GI50: MCF7; for IC (TGI): MCF7, 48 h, read-out: TGI
KM12 (Colon cancer) = test: NCI-60 screen (SRB, 48 h); settings: Homo sapiens; for GI50: KM12; for IC (TGI): KM12, 48 h, read-out: TGI
HS 578T (Breast cancer) = test: NCI-60 screen (SRB, 48 h); settings: Homo sapiens
HT29 (Colon cancer) = test: NCI-60 screen (SRB, 48 h); settings: Homo sapiens; for GI50: HT-29
OVCAR-3 (Ovarian cancer) = test: cells; settings: Homo sapiens; for GI50: OVCAR-3
Leukemia subpanel = test: cells; settings: Homo sapiens; for IC (TGI): 48 h, read-out: TGI MG_MID; for GI50: read-out: GI50 MG_MID
IGROV1 (Ovarian cancer) = test: NCI-60 screen (SRB, 48 h); settings: Homo sapiens; for GI50: IGROV-1; for IC (TGI): IGROV-1, 48 h, read-out: TGI
Melanoma subpanel = test: NCI-60 screen, subpanel; settings: Homo sapiens; for IC (TGI): 48 h, read-out: TGI MG_MID; for GI50: read-out: GI50 MG_MID; for CC50: read-out: LC50 MG_MID
HCC-2998 (Colon cancer) = test: NCI-60 screen (SRB, 48 h); settings: Homo sapiens; for GI50: HCC 2998
RPMI-8226 (Leukemia) = test: NCI-60 screen (SRB, 48 h); settings: Homo sapiens; for GI50: RPMI-8226
HOP-92 (NSC lung cancer) = test: NCI-60 screen (SRB, 48 h); settings: Homo sapiens; for GI50: HOP-92; for IC (TGI): HOP-92, 48 h, read-out: TGI
[1] = system: NCI-H226 (NSC lung cancer); test: NCI-60 screen (SRB, 48 h); settings: Homo sapiens; for GI50: NCI-H226
SW-620 (Colon cancer) = test: NCI-60 screen (SRB, 48 h); settings: Homo sapiens; for GI50: SW-620; for IC (TGI): SW-620, 48 h, read-out: TGI

C[C@H]1[C@H](C)CC[C@]2(C(=O)Nc3ccc4ncccc4c3)CC[C@]3(C)C(=CC[C@@H]4[C@@]5(C)CCCNC(C)(C)[C@@H]5CC[C@]43C)[C@H]12 [Compound 14]
GI50 (T-47D (Breast cancer)): 1670 nM | IC (TGI) (T-47D (Breast cancer)): 3640 nM | GI50 (COLO 205 (Colon cancer)): 1750 nM | IC (TGI) (COLO 205 (Colon cancer)): 3590 nM | GI50 (TK-10 (Renal cancer); Homo sapiens): 1690 nM | IC (TGI) (TK-10 (Renal cancer); Homo sapiens): 3200 nM | GI50 (SNB-19 (CNS cancer)): 1850 nM | IC (TGI) (SNB-19 (CNS cancer)): 3400 nM | GI50 (SK-MEL-5 (Melanoma)): 1850 nM | IC (TGI) (SK-MEL-5 (Melanoma)): 3320 nM | CC50 (SK-MEL-5 (Melanoma)): 5940 nM | GI50 (MDA-MB-435 (Melanoma); Homo sapiens, MDA-MB-435): 1580 nM | IC (TGI) (MDA-MB-435 (Melanoma); Homo sapiens, MDA-MB-435, 48 h, read-out: TGI): 3000 nM | Growth % of the Most Sensitive Cell Lines (MDA-MB-435 (Melanoma); MDA-MB-435, 1 dose 10 µM): −91.82% | GI50 (UACC-257 (Melanoma)): 1870 nM | IC (TGI) (UACC-257 (Melanoma)): 3540 nM | GI50 (DU-145 (Prostate cancer)): 1760 nM | IC (TGI) (DU-145 (Prostate cancer)): 3280 nM | GI50 (HCT-15 (Colon cancer)): 1590 nM | IC (TGI) (HCT-15 (Colon cancer)): 3150 nM | GI50 (MOLT-4 (Leukemia)): 1420 nM | GI50 (CCRF-CEM (Leukemia)): 1670 nM | GI50 (MALME-3M (Melanoma)): 1660 nM | GI50 (UO-31 (Renal cancer)): 1500 nM | IC (TGI) (Prostate cancer subpanel): 3280 nM | GI50 (Prostate cancer subpanel): 1760 nM | GI50 (MCF7 (Breast cancer)): 1560 nM | IC (TGI) (MCF7 (Breast cancer)): 3250 nM | GI50 (KM12 (Colon cancer)): 1890 nM | IC (TGI) (KM12 (Colon cancer)): 3630 nM | GI50 (HS 578T (Breast cancer)): 1960 nM | GI50 (HT29 (Colon cancer)): 1590 nM | GI50 (OVCAR-3 (Ovarian cancer)): 1810 nM | IC (TGI) (Leukemia subpanel): 3630 nM | GI50 (Leukemia subpanel): 1580 nM | GI50 (IGROV1 (Ovarian cancer)): 1700 nM | IC (TGI) (IGROV1 (Ovarian cancer)): 3370 nM | CC50 (IGROV1 (Ovarian cancer); IGROV-1, read-out: LC50): 6690 nM | IC (TGI) (Melanoma subpanel): 3320 nM | GI50 (Melanoma subpanel): 1770 nM | CC50 (Melanoma subpanel): 6250 nM | GI50 (HCC-2998 (Colon cancer)): 1400 nM | GI50 (RPMI-8226 (Leukemia)): 1600 nM | GI50 (HOP-92 (NSC lung cancer)): 1540 nM | IC (TGI) (HOP-92 (NSC lung cancer)): 3140 nM | GI50 [1]: 2100 nM | GI50 (SW-620 (Colon cancer)): 1800 nM | IC (TGI) (SW-620 (Colon cancer)): 3370 nM | CC50 (SW-620 (Colon cancer); SW-620, read-out: LC50): 6310 nM

C=C(C)[C@@H]1CC[C@]2(C(=O)N[C@H](CO)Cc3ccccc3)CC[C@]3(C)[C@H](CC[C@@H]4[C@@]5(C)CCCNC(C)(C)[C@@H]5CC[C@]43C)[C@@H]12 [Compound 11]
GI50 (T-47D (Breast cancer)): 1800 nM | IC (TGI) (T-47D (Breast cancer)): 4020 nM | GI50 (COLO 205 (Colon cancer)): 1310 nM | IC (TGI) (COLO 205 (Colon cancer)): 2940 nM | GI50 (TK-10 (Renal cancer); Homo sapiens): 1610 nM | IC (TGI) (TK-10 (Renal cancer); Homo sapiens): 3080 nM | CC50 (TK-10 (Renal cancer); Homo sapiens, TK-10, read-out: LC50): 5890 nM | Growth % of the Most Sensitive Cell Lines (TK-10 (Renal cancer); TK-10, 1 dose 10 µM): −94.69% | GI50 (SNB-19 (CNS cancer)): 1170 nM | IC (TGI) (SNB-19 (CNS cancer)): 2720 nM | GI50 (SK-MEL-5 (Melanoma)): 1670 nM | IC (TGI) (SK-MEL-5 (Melanoma)): 3070 nM | CC50 (SK-MEL-5 (Melanoma)): 5640 nM | Growth % of the Most Sensitive Cell Lines (SK-MEL-5 (Melanoma); SK-MEL-5, 1 dose 10 µM): −95.48% | IC (TGI) (MDA-MB-435 (Melanoma); Homo sapiens, MDA-MB-435, 48 h; read-out: TGI): 2360 nM | GI50 (MDA-MB-435 (Melanoma); Homo sapiens, MDA-MB-435; read-out: GI50): 1100 nM | GI50 (UACC-257 (Melanoma)): 1780 nM | IC (TGI) (UACC-257 (Melanoma)): 3340 nM | CC50 (UACC-257 (Melanoma); UACC-257, read-out: LC50): 6250 nM | GI50 (DU-145 (Prostate cancer)): 1480 nM | IC (TGI) (DU-145 (Prostate cancer)): 2870 nM | GI50 (HCT-15 (Colon cancer)): 970 nM | IC (TGI) (HCT-15 (Colon cancer)): 2320 nM | GI50 (MOLT-4 (Leukemia)): 670 nM | IC (TGI) (MOLT-4 (Leukemia); MOLT-4, 48 h, read-out: TGI): 2300 nM | GI50 (CCRF-CEM (Leukemia)): 250 nM | IC (TGI) (CCRF-CEM (Leukemia); 48 h, read-out: TGI): 740 nM | GI50 (MALME-3M (Melanoma)): 1420 nM | GI50 (UO-31 (Renal cancer)): 1500 nM | IC (TGI) (UO-31 (Renal cancer); UO-31, 48 h, read-out: TGI): 2960 nM | IC (TGI) (Prostate cancer subpanel): 2750 nM | GI50 (Prostate cancer subpanel): 1320 nM | GI50 (MCF7 (Breast cancer)): 490 nM | IC (TGI) (MCF7 (Breast cancer)): 2060 nM | GI50 (KM12 (Colon cancer)): 1470 nM | IC (TGI) (KM12 (Colon cancer)): 2910 nM | CC50 (KM12 (Colon cancer); KM12, read-out: LC50): 5780 nM | GI50 (HS 578T (Breast cancer)): 1610 nM | IC (TGI) (HS 578T (Breast cancer); 48 h, read-out: TGI): 3780 nM | GI50 (HT29 (Colon cancer)): 240 nM | IC (TGI) (HT29 (Colon cancer); HT-29, 48 h, read-out: TGI): 540 nM | CC50 (HT29 (Colon cancer); HT-29, read-out: LC50): 1750 nM | GI50 (OVCAR-3 (Ovarian cancer)): 460 nM | IC (TGI) (OVCAR-3 (Ovarian cancer); OVCAR-3, 48 h, read-out: TGI): 1600 nM | IC (TGI) (Leukemia subpanel): 1030 nM | GI50 (Leukemia subpanel): 340 nM | GI50 (IGROV1 (Ovarian cancer)): 1830 nM | IC (TGI) (IGROV1 (Ovarian cancer)): 3610 nM | IC (TGI) (Melanoma subpanel): 2870 nM | GI50 (Melanoma subpanel): 1420 nM | CC50 (Melanoma subpanel): 6070 nM | GI50 (HCC-2998 (Colon cancer)): 1610 nM | IC (TGI) (HCC-2998 (Colon cancer); HCC 2998, 48 h, read-out: TGI): 3050 nM | GI50 (RPMI-8226 (Leukemia)): 240 nM | IC (TGI) (RPMI-8226 (Leukemia); RPMI-8226, 48 h, read-out: TGI): 630 nM | GI50 (HOP-92 (NSC lung cancer)): 1420 nM | IC (TGI) (HOP-92 (NSC lung cancer)): 3010 nM | CC50 (HOP-92 (NSC lung cancer); HOP-92, read-out: LC50): 6420 nM | GI50 [1]: 1740 nM | IC (TGI) ([1]; NCI-H226, 48 h, read-out: TGI): 4010 nM | GI50 (SW-620 (Colon cancer)): 850 nM | IC (TGI) (SW-620 (Colon cancer)): 2260 nM
